For data set [1], the target named is T1, α2a adrenergic receptor (Homo sapiens, UniProt P08913).
T1 construct: expressed in transfected cells; host or cells: CHO cells
T1 sequence (P08913 1-465): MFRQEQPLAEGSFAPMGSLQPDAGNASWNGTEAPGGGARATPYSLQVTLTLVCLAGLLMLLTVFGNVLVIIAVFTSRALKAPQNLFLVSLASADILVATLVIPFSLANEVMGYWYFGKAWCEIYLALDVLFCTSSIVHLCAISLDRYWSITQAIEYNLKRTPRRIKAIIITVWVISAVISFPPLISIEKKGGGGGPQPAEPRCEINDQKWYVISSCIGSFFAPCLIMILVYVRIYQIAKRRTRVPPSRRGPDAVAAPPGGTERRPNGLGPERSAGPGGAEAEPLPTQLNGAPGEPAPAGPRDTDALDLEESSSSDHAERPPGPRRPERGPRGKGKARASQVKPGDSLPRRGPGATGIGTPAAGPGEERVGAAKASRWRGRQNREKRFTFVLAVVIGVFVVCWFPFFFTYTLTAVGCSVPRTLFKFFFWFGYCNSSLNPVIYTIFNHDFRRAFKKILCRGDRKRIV
As to the kind of experiment: α2a adrenergic receptor binding, [3H]RX821002. To be noted: for inhibition at 10 µM: read-out: α2a adrenergic receptor, % inhib. at 10 μM. The protocol: Affinity for the α2a adrenergic receptor was tested using CHO cells heterologously expressing the cloned human receptor that were incubated with [^3H]RX821002 (1.0 nM) in the presence of various concentrations of test compounds for 1 hour at 22° C. Nonspecific binding was determined in the presence of 100 μM (−)-epinephrine. Bound radioactivity was determined by scintillation spectroscopy.

Data set [2] deals with T2, α2c adrenergic receptor (Homo sapiens, UniProt P18825).
T2 construct: expressed in transfected cells; host or cells: CHO cells
T2 sequence (P18825 1-462): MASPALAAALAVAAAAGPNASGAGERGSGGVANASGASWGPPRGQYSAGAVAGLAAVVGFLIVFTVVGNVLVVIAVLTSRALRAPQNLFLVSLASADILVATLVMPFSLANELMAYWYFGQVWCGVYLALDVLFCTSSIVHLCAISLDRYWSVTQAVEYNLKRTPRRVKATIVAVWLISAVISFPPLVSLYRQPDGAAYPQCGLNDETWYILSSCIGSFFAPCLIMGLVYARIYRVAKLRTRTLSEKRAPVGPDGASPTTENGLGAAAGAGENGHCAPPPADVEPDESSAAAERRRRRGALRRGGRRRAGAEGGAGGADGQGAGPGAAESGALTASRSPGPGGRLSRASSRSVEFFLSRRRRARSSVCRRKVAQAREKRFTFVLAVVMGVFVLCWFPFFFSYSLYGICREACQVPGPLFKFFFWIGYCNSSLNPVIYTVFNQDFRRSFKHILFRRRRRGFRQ
Nature of the data set: α2c adrenergic receptor binding, [3H]RX821002. Particulars: for inhibition at 10 µM: read-out: α2c adrenergic receptor, % inhib. at 10 μM. The procedure:
Nonspecific binding was determined in the presence of 100 μM (−)-epinephrine. Bound radioactivity was determined by scintillation spectroscopy.

In data set [3] the target is T3, CYP2D6 (Homo sapiens, UniProt P10635).
T3 construct: purchased BD Bioscience
Nature of the data set: CYP2D6 inhibition, MAMC substrate. Type of data set: in vitro ADME. To be noted: average of six replicate experiments; for inhibition at 10 µM: human, microsomes containing human recombinant CYP2D6, probe 7-methoxy-4-(aminomethyl)-coumarin (MAMC), 10 μM test compound, read-out: Inhibition of CYP2D6, % inhib. at 10 μM; for pIC50: 95% confidence limits in parentheses. The procedure: Protocol. The inhibitory activities of AT and NT, (+)-E-10-OH-NT and (−)-E-10-OH-NT on cytochrome P450 function were tested using the methods of Chauret et al., 2001, using 7-methoxy-4-(aminomethyl)-coumarin (MAMC) (Venhorst et al., 2000) as substrate. The source of the enzyme was microsomes containing human recombinant CYP2D6 obtained from BD Bioscience. Conversion of MAMC to 7-hydroxy-4-(aminomethyl)coumarin was measured using a PerkinElmer Fusion with a 390 nm excitation filter and a 460 nm emission filter.

Data set [4] relates to FCA-induced mechanical hyperalgesia in rats. As to the kind of experiment: Rat FCA-induced mechanical hyperalgesia assay (paw pressure threshold). The data set is classed as in vivo. Particulars: for antihyperalgesia (% AH): 1 hour after treatment; for antihyperalgesia (% AH) / antihyperalgesic activity (% AH): 24 h FCA-treated rats; for antihyperalgesic activity (% AH): 60 mg/kg IP; for antihyperalgesic activity (% AH) / ED50 for reversal of mechanical hyperalgesia: 1 h posttreatment; for ED50 for reversal of mechanical hyperalgesia: response at 60 mg/kg IP taken as maximal response (100%). The protocol: Protocol. […] Dosage amounts are based on the amount of free base. For the assay, the methods of DeHaven-Hudkins et al., 1999 were used to determine mechanical hyperalgesia in rats 24 hours after intraplantar administration of 150 μL Freund's Complete Adjuvant (FCA). To determine paw pressure thresholds, the rats were lightly restrained in a gauze wrap and pressure was applied to the dorsal surface of the inflamed and uninflamed paw with a conical piston using a pressure analgesia apparatus (Stoelting Instruments, Wood Dale, Ill.). The paw pressure threshold was defined as the amount of force (in grams) required to elicit an escape response using a cutoff value of 250 grams.
Paw pressure thresholds were measured 1 h posttreatment.
Protocol. […] For comparison, sterile water vehicle was tested as a negative control. The methods of DeHaven-Hudkins et al., 1999 were used to determine mechanical hyperalgesia in rats 24 hours after intraplantar administration of 150 μL Freund's Complete Adjuvant (FCA). To determine paw pressure thresholds, the rats were lightly restrained in a gauze wrap and pressure was applied to the dorsal surface of the inflamed and uninflamed paw with a conical piston using a pressure analgesia apparatus (Stoelting Instruments, Wood Dale, Ill.). The paw pressure threshold was defined as the amount of force (in grams) required to elicit an escape response using a cutoff value of 250 grams.
Paw pressure thresholds were determined 1, 2, or 4 hours after administration using the methods disclosed in Examples 5 and 18.
Accordingly, rats were treated with sterile water vehicle, 30, or 60 mg/kg IP twenty-four hours after administration of FCA.

SMILES strings stand for the structures. pIC50, pKi: −log10 of the molar value.

Broadly, the pKi is the negative decadic logarithm of the Ki, by convention in mol/L. Broadly, the pIC50 is the IC50 on a negative log10 scale, so that one unit is a factor of ten.

T3 sequence (P10635 whole entry): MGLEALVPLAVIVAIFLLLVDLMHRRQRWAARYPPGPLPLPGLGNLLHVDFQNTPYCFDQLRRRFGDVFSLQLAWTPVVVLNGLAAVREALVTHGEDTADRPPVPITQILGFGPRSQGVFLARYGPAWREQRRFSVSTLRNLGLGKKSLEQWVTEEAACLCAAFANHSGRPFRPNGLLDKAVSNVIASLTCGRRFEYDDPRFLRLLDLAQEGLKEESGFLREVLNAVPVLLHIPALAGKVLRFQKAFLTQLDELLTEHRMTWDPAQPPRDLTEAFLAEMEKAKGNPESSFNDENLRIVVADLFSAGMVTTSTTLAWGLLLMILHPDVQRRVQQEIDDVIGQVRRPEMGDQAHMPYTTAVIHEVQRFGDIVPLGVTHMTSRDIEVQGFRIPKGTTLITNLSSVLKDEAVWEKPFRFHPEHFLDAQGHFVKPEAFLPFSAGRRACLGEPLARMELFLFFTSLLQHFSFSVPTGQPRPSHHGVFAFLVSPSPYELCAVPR

Regarding `CNCC/C=C1\c2ccccc2C[C@H](O)c2ccccc21` (stereo in doubt) [(+)-E-10-OH-NT], the results for the inhibition at 10 µM in data set [1], in data set [2] and in data set [3] were 15%, 35% and 40%, respectively. Also, the “antihyperalgesia (% AH)” value in data set [4] (30 mg/kg IP) was “not antihyperalgesic”. Also, the “antihyperalgesic activity, time course” value in data set [4] (30 mg/kg IP, 1, 2, or 4 hours after administration) is on record as “not antihyperalgesic at any time point tested”. Also, the “antihyperalgesic activity (% AH)” value in data set [4] is 40±13 % AH.
Take `CNCC/C=C1\c2ccccc2C[C@@H](O)c2ccccc21` (stereo in doubt) [(−)-E-10-OH-NT]: the inhibition at 10 µM in data set [1] came out at 23%; in data set [2], 30%; in data set [3], 37%. In addition, the “antihyperalgesia (% AH)” value in data set [4] (30 mg/kg IP) is 55±7 % AH. Besides, the “antihyperalgesic activity (Example 5)” value in data set [4] (30 mg/kg, i.p.) was “robust antihyperalgesic activity”. In addition, in data set [4], the “antihyperalgesic activity (% AH)” value worked out at 270±53 % AH. In addition, the “antihyperalgesic activity, orally-administered” value in data set [4] (oral administration) is recorded as “significant activity”. Moreover, in data set [4], the “ED50 for reversal of mechanical hyperalgesia” value is given as 36 mg/kg IP.
On to `CN(C)CCC=C1c2ccccc2CCc2ccccc21` [AT, amitriptyline, reference compound], for which, in data set [1] (read-out: Affinity at α2a adrenergic receptor, Ki), the pKi is 6.24. Moreover, in data set [2] (read-out: Affinity at α2c adrenergic receptor, Ki), the pKi is 7.89. Moreover, in data set [3], the pIC50 was 6.09. In addition, in data set [4], the “antihyperalgesic activity (% AH)” value was found to be 259±39 % AH and the “ED50 for reversal of mechanical hyperalgesia” value is 38 mg/kg IP.
Consider `CNCCC=C1c2ccccc2CCc2ccccc21` [NT, nortriptyline, reference compound], for which, in data set [3], the pIC50 was 6.15.

These data come from US20120178815A1, “Compositions of (-)-E-10-OH-NT and Methods for Their Synthesis and Use” (Adolor Corporation, priority 2007, published 2012).
